Measurements from patent US10105357B2, “Indication of antibiotic drugs for preparation of cancer inhibition pharmaceutical composition” (LAUNX BIOMEDICAL CO., LTD., priority 2014, dated 2018).
Where two headings read alike, the source gives them in different places.

What was measured:
[1] = tested on: LoVo (Colorectal Adenocarcinoma); experiment: Cell viability analysis, colon cancer LoVo; assay type: cell-based, human; conditions: Homo sapiens, LoVo, 72 h
[2] = tested on: A375 (Amelanotic Melanoma); experiment: Cell viability analysis, skin cancer A375; assay type: cell-based, human; conditions: Homo sapiens, A-375, 72 h
[3] = tested on: AsPC-1; experiment: Cell viability analysis, pancreatic cancer AsPC-1; assay type: cell-based, human; conditions: Homo sapiens, ASPC1, 72 h, read-out: The results of antibiotic drug inhibiting cancer cell lines (cell viability analysis), AsPC-1
[4] = tested on: BxPC-3; experiment: Cell viability analysis, pancreatic cancer BxPC-3; assay type: cell-based, human; conditions: Homo sapiens, BXPC-3, 72 h, read-out: The results of antibiotic drug inhibiting cancer cell lines (cell viability analysis), BxPC-3
[5] = tested on: HCT116 (p53+) (Colorectal Carcinoma)
[6] = tested on: HeLa (Cervix Adenocarcinoma); experiment: Cell viability analysis, cervical cancer HeLa; assay type: cell-based, human; conditions: Homo sapiens, HeLa, 72 h
[7] = tested on: HepG2 (Hepatocellular Carcinoma); experiment: Cell viability analysis, hepatic cancer HepG2; assay type: cell-based, human; conditions: Homo sapiens, HepG2, 72 h
[8] = tested on: A549 (Lung Adenocarcinoma); experiment: Cell viability analysis, lung cancer A549; assay type: cell-based, human; conditions: Homo sapiens, A549, 72 h
[9] = tested on: SAS (Tongue squamous cell carcinoma); experiment: Cell viability analysis, tongue cancer SAS; assay type: cell-based, human; conditions: Homo sapiens, 72 h, read-out: The results of antibiotic drug inhibiting cancer cell lines (cell viability analysis), SAS
[10] = tested on: MDA-MB-231 (Mammary Gland, Adenocarcinoma); experiment: Cell viability analysis, breast cancer MDA-MB-231; assay type: cell-based, human; conditions: Homo sapiens, MDA-MB-231, 72 h, read-out: The results of antibiotic drug inhibiting cancer cell lines (cell viability analysis), MDA-MB231
[11] = tested on: MCF7 (Mammary Gland, Adenocarcinoma); experiment: Cell viability analysis, breast cancer MCF7; assay type: cell-based, human; conditions: Homo sapiens, MCF7, 72 h
[12] = tested on: HI650 (Lung Adenocarcinoma); experiment: Cell viability analysis, lung cancer HI650; assay type: cell-based, human; conditions: Homo sapiens, NCI-H1650, 72 h
[13] = tested on: U-2OS; experiment: Cell viability analysis, osteosarcoma U-2OS; assay type: cell-based, human; conditions: Homo sapiens, U2OS, 72 h, read-out: The results of antibiotic drug inhibiting cancer cell lines (cell viability analysis), U2OS
[14] = tested on: AGS (Gastric Adenocarcinoma); experiment: Cell viability analysis, gastric cancer AGS; assay type: cell-based, human; conditions: Homo sapiens, 72 h
[15] = tested on: TSGH-8301 (Urinary Bladder Carcinoma); experiment: Cell viability analysis, bladder cancer TSGH-8301; assay type: cell-based, human; conditions: Homo sapiens, 72 h
[16] = tested on: TOV-21G; experiment: Cell viability analysis, ovarian cancer TOV-21G; assay type: cell-based, human; conditions: Homo sapiens, TOV21G, 72 h, read-out: The results of antibiotic drug inhibiting cancer cell lines (cell viability analysis), TOV-21G
[17] = tested on: PC3 (p53−) (Prostate Adenocarcinoma); experiment: Cell viability analysis, prostate cancer PC3; assay type: cell-based, human; conditions: Homo sapiens, 72 h
[18] = tested on: NIH: OVCAR-3; experiment: Cell viability analysis, ovarian cancer NIH: OVCAR-3; assay type: cell-based, human; conditions: Homo sapiens, OVCAR-3, 72 h, read-out: The results of antibiotic drug inhibiting cancer cell lines (cell viability analysis), NIH-OVCAR-3
[19] = tested on: BCC (basal cell carcinoma); experiment: Cell viability analysis, skin cancer BCC; assay type: cell-based, human; conditions: Homo sapiens, 72 h, read-out: The results of antibiotic drug inhibiting cancer cell lines (cell viability analysis), BCC
[20] = tested on: T24; experiment: Cell viability analysis, bladder cancer T24; assay type: cell-based, human; conditions: Homo sapiens, T-24, 72 h, read-out: The results of antibiotic drug inhibiting cancer cell lines (cell viability analysis), T24
[21] = tested on: Hep3B (hepatocellular carcinoma); experiment: Cell viability analysis, hepatic cancer Hep3B; assay type: cell-based, human; conditions: Homo sapiens, Hep3B, 72 h, read-out: The results of antibiotic drug inhibiting cancer cell lines (cell viability analysis), Hep3B
[22] = tested on: 786-O (Renal adenocarcinoma); experiment: Cell viability analysis, renal cancer 786-O; assay type: cell-based, human; conditions: Homo sapiens, 786-0, 72 h, read-out: The results of antibiotic drug inhibiting cancer cell lines (cell viability analysis), 786-O
[23] = tested on: MKN-45 (Gastric Adenocarcinoma); experiment: Cell viability analysis, gastric cancer MKN-45; assay type: cell-based, human; conditions: Homo sapiens, MKN-45, 72 h
[24] = tested on: C-33A (Cervical carcinoma); experiment: Cell viability analysis, cervical cancer C-33A; assay type: cell-based, human; conditions: Homo sapiens, C-33-A, 72 h, read-out: The results of antibiotic drug inhibiting cancer cell lines (cell viability analysis), C-33A

Structure (SMILES): CC(NC(C)(C)C)C(=O)c1cccc(Cl)c1 (centres unmarked) [Amfebutamone (Bupropion), Amfebutamone]
- viability at 10 µM ([1]; read-out: The results of antibiotic drug inhibiting cancer cell lines (cell viability analysis), LoVo, repeated experiment): 115%
- viability at 10 µM ([1]; read-out: cell viability (survival rate), LoVo, drug 10 μM, 72 hours, WST-1, OD450 nm): 51.4%
- viability at 10 µM ([2]; read-out: The results of antibiotic drug inhibiting cancer cell lines (cell viability analysis), A375, A375, repeated experiment): 88.4%
- viability at 10 µM ([2]; read-out: cell viability (survival rate), A375, drug 10 μM, 72 hours, WST-1, OD450 nm): 88.2%
- viability at 10 µM [3]: 84.3%
- viability at 10 µM [4]: 79.6%
- viability [5]: 78.3%
- viability at 10 µM ([6]; read-out: The results of antibiotic drug inhibiting cancer cell lines (cell viability analysis), HeLa, repeated experiment): 84.5%
- viability at 10 µM ([6]; read-out: cell viability (survival rate), HeLa, drug 10 μM, 72 hours, WST-1, OD450 nm): 53.4%
- viability at 10 µM ([7]; read-out: The results of antibiotic drug inhibiting cancer cell lines (cell viability analysis), HepG2, HepG2, repeated experiment): 92.3%
- viability at 10 µM ([7]; read-out: cell viability (survival rate), HepG2, drug 10 μM, 72 hours, WST-1, OD450 nm): 85.1%
- viability at 10 µM ([8]; read-out: The results of antibiotic drug inhibiting cancer cell lines (cell viability analysis), A549, A549, repeated experiment): 69.1%
- viability at 10 µM ([8]; read-out: cell viability (survival rate), A549, drug 10 μM, 72 hours, WST-1, OD450 nm): 59.2%
- viability at 10 µM [9]: 110%
- viability at 10 µM [10]: 80.3%
- viability at 10 µM ([11]; read-out: The results of antibiotic drug inhibiting cancer cell lines (cell viability analysis), MCF-7, MCF-7, repeated experiment): 69%
- viability at 10 µM ([11]; read-out: cell viability (survival rate), MCF7, drug 10 μM, 72 hours, WST-1, OD450 nm): 64.7%
- viability at 10 µM ([12]; read-out: The results of antibiotic drug inhibiting cancer cell lines (cell viability analysis), H1650, H1650, repeated experiment): 96%
- viability at 10 µM ([12]; read-out: cell viability (survival rate), H1650, drug 10 μM, 72 hours, WST-1, OD450 nm): 74.3%
- viability at 10 µM [13]: 92.3%
- viability at 10 µM ([14]; read-out: The results of antibiotic drug inhibiting cancer cell lines (cell viability analysis), AGS, repeated experiment): 117%
- viability at 10 µM ([14]; read-out: cell viability (survival rate), AGS, drug 10 μM, 72 hours, WST-1, OD450 nm): 30%
- viability at 10 µM ([15]; read-out: The results of antibiotic drug inhibiting cancer cell lines (cell viability analysis), TSGH-8301, TSGH-8301, repeated experiment): 116%
- viability at 10 µM ([15]; read-out: cell viability (survival rate), TSGH, drug 10 μM, 72 hours, WST-1, OD450 nm): 44.9%
- viability at 10 µM [16]: 97.5%
- viability at 10 µM ([17]; read-out: The results of antibiotic drug inhibiting cancer cell lines (cell viability analysis), PC-3, PC-3, repeated experiment): 87.9%
- viability at 10 µM ([17]; read-out: cell viability (survival rate), PC3, drug 10 μM, 72 hours, WST-1, OD450 nm): 62.8%
- viability at 10 µM [18]: 109%
- viability at 10 µM [19]: 77.5%
- viability at 10 µM [20]: 99.6%
- viability at 10 µM [21]: 82.1%
- viability at 10 µM [22]: 103%
- viability at 10 µM ([23]; read-out: The results of antibiotic drug inhibiting cancer cell lines (cell viability analysis), MKN-45, MKN-45, repeated experiment): 103%
- viability at 10 µM ([23]; read-out: cell viability (survival rate), MKN-45, drug 10 μM, 72 hours, WST-1, OD450 nm): 52.1%
- viability at 10 µM [24]: 107%
